These results are taken from patent publication US20040203128A1, “Use of PP2A phosphatase modulators in the treatment of mental disorders” (priority 2002, published 2004).

One test relates to GSK-3β. Description: In vitro phosphorylation assay of GST-2E11 with recombinant GSK-3β kinase and PKA. It is filed as biochemical. As to conditions: LiCl at final concentration 0, 8.3, 25, 75 and 225 mM; signal negatively correlated with concentration. The protocol:
Expression and purification of the GST-2E11 fusion protein were performed as described above. Beads with bound fusion protein corresponding to 1 ml of bacterial clear lysate were washed three times in NETN and one time with HMK buffer without DTT (20 mM Tris-HCl [pH 7.5], 120 mM NaCl, 12 mM MgCl2). Beads were resuspended in 240 μl of reaction mix (24 μl of 10×HMK Buffer with 20 mM DTT, 40 units of Protein Kinase A Catalytic Subunit [PKA from bovine heart, 250 units/vial, Sigma] in 40 mM DTT, 5 μl of 24 mM ATP and 207 μl of distilled water) and incubated for 30 min at room temperature. Beads were then washed three times in NETN buffer and one time in GSK-3β reaction buffer (20 mM Tris-HCl [pH 7.5], 10 mM MgCl2, 5 mM DTT) (New England Biolabs). Beads were then resuspended in 50 μl of reaction mix (5 μl of 10×GSK-3β reaction buffer, 1 μl of [^32P]γATP 10mCi/ml, 50 U of recombinant GSK-3β[New England Biolabs], and distilled water for a final volume of 50 μl) and incubated at room temperature for 30 min. After three washes in NETN buffer, phosphorylated proteins were boiled in 2× Sample Buffer (125 mM Tris-HCl [pH 6.8], 4% SDS, 20% glycerol, 1.4 M β-Mercapto ethanol), resolved by 10% SDS-PAGE, and visualized by autoradiography.
In this phosphorylation assay, non-radiolabeled polypeptides to be tested are incubated in the presence of GSK-3β, PKA and radioactive ATP. […]

In the next test the test system is PP2A phosphatase. Description: In vitro dephosphorylation of phosphorylated GST-2E11 with HTB-14 whole cell extracts. The format is biochemical, Human. Particulars: HTB-14 cell extracts plus 400 μM okadaic acid, 30 min, room temperature. The protocol:
In vitro phosphorylated GST-2E11 fusion protein was incubated at room temperature for 30 min with 500 μg of whole cell extracts of Human glioblastoma, astrocytoma cell line (ATCC number: HTB-14) with or without 400 μM of the PP2A phosphatase inhibitor okadaic acid (Sigma). HTB-14 whole cell extracts were prepared as follow: cells were washed three times with ice-cold TBS buffer (10 mM Tris-HCl [pH 8.0], 120 mM NaCl) and lysed at 4° C. for 30 min in EBC buffer (50 mM Tris-HCl [pH 8.0], 120 mM NaCl, 0.5% Nonidet P-40). Then the lysate was centrifugated for 10 min at 13.000×g at 4° C. to pellet cell debris. Proteins present in the supernatant were quantified by the standard Bradford's method (Bio-Rad Protein Assay). The proteins were then resolved by 10% SDS-PAGE, and visualized by autoradiography.
The phosphorylated radiolabeled GST-2E11 proteins obtained from the previous assay were incubated in the presence of HTB-14 cell extracts containing the PP2A phosphatase to determine whether PP2A is capable of dephosphorylating GST-2E11 proteins. In this experiment, a protein that is dephosphorylated by PP2A is not radioactive after incubation in the presence of HTB-14 cell extracts any more. Thus dephosphorylation of the GST-2E11 protein is monitored by disappearance of the signal visualized by autoradiography. […]

As for `[Cl-].[Li+]` [LiCl], the “intensity of the GST-2E11 band (phosphorylation) in the presence of LiCl” value in the test on GSK-3β was “decreased”. With `C=C1[C@@H](O)[C@@H]2O[C@]3(CC[C@H](/C=C/[C@@H](C)[C@@H]4CC(C)=C[C@@]5(O[C@H](C[C@@](C)(O)C(=O)O)CC[C@H]5O)O4)O3)CC[C@H]2O[C@@H]1[C@@H](O)C[C@H](C)[C@H]1O[C@@]2(CCCCO2)CC[C@H]1C` [okadaic acid], the “intensity of the GST-2E11 band versus phosphorylated GST-2E11 reference (inhibition of dephosphorylation)” value with PP2A phosphatase is given as “only slightly weaker”.
